Literature values as cited in patent US20230088267A1, “Dual chamber electronic nicotine delivery system with puff duration control and timed lockout and just-in-time adaptive intervention to treat nicotine dependence in cigarette smokers” (Virginia Commonwealth University, priority 2021, published 2023).

CN1CCC[C@H]1c1cccnc1 [nicotine, L-nicotine]
pka of the second nitrogen atom, located in the aromatic pyridine moiety (pyridine nitrogen, protonated under acidic conditions): 3.10
pka of the nitrogen atom in the pyrrolidine moiety (pyrrolidine nitrogen, basic): 8.01
